Laboratory results from US4452778A, “Synergistic antibacterial compositions and method of treatment of infections caused by multiple antibiotic-resistant organisms” (Eli Lilly and Company, priority 1981, dated 1984).
Converted amounts (≈) assume the structure as drawn. Counter-ions that a name gives are not always drawn. Like-named read-outs stand apart in the source and are kept apart here.

What was measured:
[1] = 1 mg/kg intramuscular; cited from earlier work
[2] = tested on: Serratia marcescens; assay: Checkerboard broth dilution synergy study (mic); format: cell-based; conditions: Table III; for MIC: Serratia marcescens, read-out: mic, drug alone
[3] = tested on: Pseudomonas aeruginosa; assay: Checkerboard broth dilution synergy study (mic); format: cell-based; conditions: Table III; for MIC: Pseudomonas aeruginosa, read-out: mic, drug alone
[4] = tested on: Pseudomonas pseudomallei; assay: microbe, parasite or virus in culture; format: cell-based
[5] = tested on: Proteus rettgeri; assay: Checkerboard broth dilution synergy study (mic); format: cell-based; conditions: Table III; for MIC: Providencia rettgeri, read-out: mic, drug alone
[6] = tested on: Pseudomonas maltophilia; assay: Checkerboard broth dilution synergy study (mic); format: cell-based; conditions: Table III; for MIC: Stenotrophomonas maltophilia, read-out: mic, drug alone
[7] = tested on: Klebsiella pneumoniae; assay: Checkerboard broth dilution synergy study (mic); format: cell-based; conditions: Table III; for MIC: Klebsiella pneumoniae, read-out: mic, drug alone
[8] = tested on: Acinetobacter sp.; assay: Checkerboard broth dilution synergy study (mic); format: cell-based; conditions: Table III; for MIC: Acinetobacter, read-out: mic, drug alone
[9] = cited from earlier work; for average peak serum concentration: 1 hour
[10] = tested on: E. cloacae; assay: Checkerboard broth dilution synergy study (mic); format: cell-based; conditions: Table III; for MIC: Enterobacter cloacae, read-out: mic, drug alone

## NC[C@H]1O[C@H](O[C@H]2[C@H](O)[C@@H](O[C@H]3O[C@H](CO)[C@@H](O)[C@H](N)[C@H]3O)[C@H](N)C[C@@H]2N)[C@H](N)C[C@@H]1O [tobramycin sulfate]
[1]
  maximum serum concentrations: about 4 mcg/ml

## NCC[C@H](O)C(=O)N[C@@H]1C[C@H](N)[C@@H](O[C@H]2O[C@H](CN)[C@@H](O)[C@H](O)[C@H]2O)[C@H](O)[C@H]1O[C@H]1O[C@H](CO)[C@@H](O)[C@H](N)[C@H]1O [amikacin]
[2]; isolate 463-2
  MIC: 1 µg/mL
  mic of each drug in combination I + A: < 0.5 µg/mL
[2]; isolate 606
  MIC: 1 µg/mL
  mic of each drug in combination I + A: < 0.5 µg/mL
[2]; isolate 1414
  MIC: 8 µg/mL
  mic of each drug in combination I + A: < 0.5 µg/mL
[2]; isolate B377
  MIC: 2 µg/mL
  mic of each drug in combination I + A: < 0.5 µg/mL
[2]; isolate Ziegler
  MIC: 4 µg/mL
  mic of each drug in combination I + A: 2 µg/mL
[3]; isolate 316-2
  MIC: 16 µg/mL
  mic of each drug in combination I + A: 2 µg/mL
[3]; isolate 362
  MIC: 16 µg/mL
  mic of each drug in combination I + A: 2 µg/mL
[3]; isolate 363
  MIC: 32 µg/mL
  mic of each drug in combination I + A: 2 µg/mL
[3]; isolate 610
  MIC: 1 µg/mL
  mic of each drug in combination I + A: 1 µg/mL
[3]; isolate Brownlee
  MIC: 16 µg/mL
  mic of each drug in combination I + A: 4 µg/mL
[4]; Burkholderia pseudomallei, read-out: mic, drug alone
  MIC: 32 µg/mL (≈ 54.6 µM)
[4]; Table III, isolate not named
  mic of each drug in combination I + A: 8 µg/mL
[5]; isolate 53
  MIC: 8 µg/mL
  mic of each drug in combination I + A: < 0.5 µg/mL
[5]; isolate 136-1
  MIC: 4 µg/mL
  mic of each drug in combination I + A: 1 µg/mL
[5]; isolate 768
  MIC: 16 µg/mL
  mic of each drug in combination I + A: < 0.5 µg/mL
[5]; isolate 997
  MIC: 8 µg/mL
  mic of each drug in combination I + A: < 0.5 µg/mL
[5]; isolate 1422
  MIC: 4 µg/mL
  mic of each drug in combination I + A: 8 µg/mL
[6]; isolate 10
  MIC: > 64 µg/mL
  mic of each drug in combination I + A: < 0.5 µg/mL
[6]; isolate 505
  MIC: > 64 µg/mL
  mic of each drug in combination I + A: 1 µg/mL
[7]; isolate 130
  MIC: 4 µg/mL
  mic of each drug in combination I + A: < 0.5 µg/mL
[7]; isolate 214-1
  MIC: 8 µg/mL
  mic of each drug in combination I + A: < 0.5 µg/mL
[7]; isolate 463
  MIC: 2 µg/mL
  mic of each drug in combination I + A: < 0.5 µg/mL
[7]; isolate 938
  MIC: 4 µg/mL
  mic of each drug in combination I + A: < 0.5 µg/mL
[7]; isolate 1231
  MIC: 4 µg/mL
  mic of each drug in combination I + A: 2 µg/mL
[8]; isolate 28-1
  MIC: 8 µg/mL
  mic of each drug in combination I + A: 8 µg/mL
[8]; isolate 28-2
  MIC: 4 µg/mL
  mic of each drug in combination I + A: < 0.5 µg/mL
[8]; isolate 106
  MIC: 2 µg/mL
  mic of each drug in combination I + A: < 0.5 µg/mL
[8]; isolate 107
  MIC: 8 µg/mL
  mic of each drug in combination I + A: 8 µg/mL
[8]; isolate 109
  MIC: 4 µg/mL
  mic of each drug in combination I + A: < 0.5 µg/mL
[9]; 250 mg (3.7 mg/kg) intramuscular
  average peak serum concentration: about 12 mcg/ml
[9]; 250 mg (3.7 mg/kg) intramuscular, 10 hours
  serum level: about 0.3 mcg/ml
[9]; 375 mg (5 mg/kg) intramuscular
  average peak serum concentration: ~16 µg/mL
[9]; 375 mg (5 mg/kg) intramuscular, 10 hours
  serum level: ~1200 ng/mL
[9]; 500 mg (7.5 mg/kg) infusion over 30 minutes, 30 minutes post-infusion
  serum level: 24000 ng/mL
[9]; 500 mg (7.5 mg/kg) infusion over 30 minutes, 1 hour post-infusion
  serum level: 18000 ng/mL
[9]; 500 mg (7.5 mg/kg) infusion over 30 minutes, 10 hours post-infusion
  serum level: 750 ng/mL
[9]; 500 mg (7.5 mg/kg) infusion over 30 minutes, end of infusion
  mean peak serum concentration: 38 µg/mL
[9]; 500 mg (7.5 mg/kg) intramuscular
  average peak serum concentration: ~21 µg/mL
[9]; 500 mg (7.5 mg/kg) intramuscular, 10 hours
  serum level: ~2100 ng/mL
[10]; isolate 228
  MIC: 2 µg/mL
  mic of each drug in combination I + A: < 0.5 µg/mL
[10]; isolate 1253
  MIC: 1 µg/mL
  mic of each drug in combination I + A: < 0.5 µg/mL
[10]; isolate 1296
  MIC: 4 µg/mL
  mic of each drug in combination I + A: 0.5 µg/mL
[10]; isolate 1415
  MIC: 8 µg/mL
  mic of each drug in combination I + A: < 0.5 µg/mL
[10]; isolate McQuinn
  MIC: 32 µg/mL
  mic of each drug in combination I + A: 2 µg/mL
